Measurements as given in patent publication US20260174875A1 (Novo Nordisk A/S, priority 2023, published 2026).
Where two headings read alike, the source gives them in different places. Numbered stars: 1 amine (or outer) side, 2 acyl side, 3 side chain; on linkers, the order of the positions; unused ones are H or OH. Square brackets hold non-standard residues; d marks the D form. Side chains are listed from the residue outwards. * marks the point of attachment. C20 diacid = O=C(O)CCCCCCCCCCCCCCCCCCC(=O)*; C18 diacid = O=C(O)CCCCCCCCCCCCCCCCC(=O)*; C16 diacid = O=C(O)CCCCCCCCCCCCCCC(=O)*; γGlu = O=C(O)[C@H](CCC(=O)[*:2])N[*:1]; AEEA = NCCOCCOCC(=O)O; Aib = CC(C)(N)C(=O)O

Assays:
[1] = Pharmacokinetic study in minipigs (i.v.); type: in vivo, Göttingen minipigs; settings: female, Göttingen, minipig, plasma, iv; i.v. administration to minipigs, 2 nmol/kg; read-out: Terminal half-life t1/2 (converted)
Method: This is done in a pharmacokinetic (PK) study, where the terminal half-life (t1/2) of the compound or derivative in question is determined. By terminal half-life is meant the time it takes to halve a certain plasma concentration in the terminal elimination phase.
Female Göttingen minipigs, obtained from Ellegaard Göttingen Minipigs (Dalmose, Denmark), approximately 8-12 months of age and weighing approximately 20-30 kg were used in the studies.
After three weeks of acclimatisation two permanent central venous catheters were implanted in vena cava caudalis in each animal. The animals were allowed at least 10 days recovery after the surgery and were then used for repeated pharmacokinetic studies with a suitable wash-out period between successive dosing.
The compounds of the invention were formulated (40 nmol/ml) in the following vehicle: 8 mM phosphate; 250 mM glycerol; 0.007% polysorbate 20, pH 7.4.
Blood samples (for example 1.3 ml) were collected in EDTA (1.3 ml tube containing K3EDTA to yield 1.6 mg K3EDTA/ml blood) coated tubes and then centrifuged at 4° C. and 2000×g for 10 minutes.
Plasma was within 30 min after centrifugation pipetted into Micronic tubes stored on dry ice and were afterwards kept at −20° C. until analysed for plasma concentration of the compounds using LCMS.
Plasma concentrations of the peptides of the invention were assayed by plasma protein precipitation and analysed by liquid chromatography mass spectrometry (LC-MS). Calibrators were prepared by spiking blank plasma from minipigs with the compounds in the typical range from 0.05 to 200 nM. […] The supernatant was diluted with 1 volumes of Milli-Q water containing 1% Formic acid before injection on the LC-MS system. Individual plasma concentration-time profiles were analysed by a non-compartmental pharmacokinetic method (NCA) in Phoenix v. 6.4 (Pharsight Inc., Mountain View, CA, USA), and the resulting terminal half-lives (harmonic mean) determined. The LC-MS analysis was carried out using a TurboFlow HPLC system from Thermo Fisher Scientific (Bremen, Germany) coupled to either a Q Exactive Orbitrap or Altis Triple Quadrupole (TQ) Mass Spectrometer. […] The Orbitrap mass spectrometer were operating in positive ionization mode with a spray voltage of 4.0 kV using Parallel Reaction Monitoring scan mode using 5 m/z isolation windows on the most abundant charge state of the compounds with a resolution of 35K on the Orbitrap MS.
The data was processed using the Quan Browser in the Xcalibur software from Thermo Fisher Scientific (Bremen, Germany) by fitted the data to linear calibration curves (weighed 1/x^2), used for calculating the concentration in the plasma samples. Quality control samples were included.

[2] = biological target: T1, human GLP-1 receptor (hGLP-1R) (Homo sapiens, UniProt P43220); test: GLP-1 receptor assay, method B (CRE-luciferase reporter, BHK cells, 384-well); type: cell-based
T1 construct: expressed in transfected cells
T1 sequence (P43220 24-463): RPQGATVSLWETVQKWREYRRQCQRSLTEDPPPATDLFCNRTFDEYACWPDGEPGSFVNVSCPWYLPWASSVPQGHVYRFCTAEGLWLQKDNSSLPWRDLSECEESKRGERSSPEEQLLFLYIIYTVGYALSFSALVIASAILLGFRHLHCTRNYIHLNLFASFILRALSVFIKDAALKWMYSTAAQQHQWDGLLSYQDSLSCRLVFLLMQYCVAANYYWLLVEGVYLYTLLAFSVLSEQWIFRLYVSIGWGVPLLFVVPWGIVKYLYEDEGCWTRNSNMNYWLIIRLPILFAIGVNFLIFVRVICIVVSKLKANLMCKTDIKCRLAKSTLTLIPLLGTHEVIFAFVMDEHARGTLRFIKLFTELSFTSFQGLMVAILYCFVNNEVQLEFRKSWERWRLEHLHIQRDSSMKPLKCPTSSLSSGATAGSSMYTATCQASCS
Method: (§1) To assess how the activation of the receptors is potentially influenced by the presence of human serum albumin (HSA), the in vitro assays were performed in the absence of HSA and presence of 1% (w/v) HSA.
Cells at approximately 80-90% confluence were washed once in PBS (Gibco 14190-094) and loosened from the cell flasks with Versene (Gibco, 15040-033). […] Cells were aliquoted and stored at −180° C. until use.
(§2) The assay buffer consisted of DMEM without phenol red (Gibco, 11880-028) supplemented with 1× GlutaMAX (Gibco, 35050-038), 10 mM HEPES (Gibco, 15630-056), 1% (w/v) ovalbumin (Sigma, A5503) and 0.1% (v/v) Pluronic F-68 (Gibco, 24040-032) either with HSA or without HSA (Sigma, A9511).
Serial dilutions were transferred to a 384-well assay plate (PerkinElmer/Revvity, 6007688) and mixed with an equal volume (10 μL) of assay buffer without or with 3% (w/v) HSA (Sigma, A-9511). Frozen stocks of hGLP-1R BHK Cre-Luc cells were thawed in a 37° C. water bath, washed once in PBS (Gibco 14190-094), diluted to 1.5×10^5 (1.5E+5) cells/mL in assay buffer (without HSA) and added (10 μL) to each well of the 384-well assay plate. After a short centrifugation, the assay plates were incubated for 3 hours at 37° C. in 5% CO2 and let to equilibrated at room temperature for 10 minutes before the addition of 30 μL steadylite Plus™ PerkinElmer/Revvity, 6066759) per well. Plates were sealed and incubated at room temperature with gentle shaking for 30 minutes while protected from light. Luminescence was detected on a luminescence plate reader e.g. a Synergy 2 (BioTek).

[3] = biological target: T2, human amylin receptor (hAMYR3) (Homo sapiens, UniProt O60896+P30988); test: Amylin receptor assay, method B (CRE-luciferase reporter, BHK cells); type: cell-based
T2 construct: host or cells: BHK cells (Hollex-1 line expressing hCTR(a) and CRE-Luc), further transfected with human RAMP3
T2 sequence (P30988 25-474): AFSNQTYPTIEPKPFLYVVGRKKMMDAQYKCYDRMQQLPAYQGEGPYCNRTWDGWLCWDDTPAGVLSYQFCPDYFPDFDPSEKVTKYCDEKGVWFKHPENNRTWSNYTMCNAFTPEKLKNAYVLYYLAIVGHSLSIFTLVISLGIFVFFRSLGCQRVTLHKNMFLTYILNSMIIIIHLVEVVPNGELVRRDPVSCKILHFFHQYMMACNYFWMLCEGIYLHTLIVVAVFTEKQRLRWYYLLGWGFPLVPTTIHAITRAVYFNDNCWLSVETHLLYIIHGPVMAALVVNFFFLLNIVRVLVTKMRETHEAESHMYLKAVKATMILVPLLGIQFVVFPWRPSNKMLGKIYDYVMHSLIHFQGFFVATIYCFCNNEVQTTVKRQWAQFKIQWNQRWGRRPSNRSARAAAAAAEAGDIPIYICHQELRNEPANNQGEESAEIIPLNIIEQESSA
T2 sequence (O60896 24-148): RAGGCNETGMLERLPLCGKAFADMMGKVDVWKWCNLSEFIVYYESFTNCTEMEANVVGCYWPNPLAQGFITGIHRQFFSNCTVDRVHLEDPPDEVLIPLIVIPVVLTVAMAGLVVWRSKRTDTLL
Procedure, shortened: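 BHK cells with CRE-luciferase, co-expressing hAMYR3 and transfected with human RAMP3, seeded overnight, then exposed 3 h at 37 °C to compound. Buffer: phenol red-free DMEM, 10 mM HEPES, 1% ovalbumin, with 0% or 1% (w/v) HSA. Luminescence read after 30 min with steadylite Plus.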

[4] = biological target: T3, human GIP receptor (hGIPR) (Homo sapiens, UniProt P48546); test: GIP receptor assay, method B (CRE-luciferase reporter, BHK cells, 384-well); type: cell-based
T3 construct: expressed in transfected cells
T3 sequence (P48546 22-466): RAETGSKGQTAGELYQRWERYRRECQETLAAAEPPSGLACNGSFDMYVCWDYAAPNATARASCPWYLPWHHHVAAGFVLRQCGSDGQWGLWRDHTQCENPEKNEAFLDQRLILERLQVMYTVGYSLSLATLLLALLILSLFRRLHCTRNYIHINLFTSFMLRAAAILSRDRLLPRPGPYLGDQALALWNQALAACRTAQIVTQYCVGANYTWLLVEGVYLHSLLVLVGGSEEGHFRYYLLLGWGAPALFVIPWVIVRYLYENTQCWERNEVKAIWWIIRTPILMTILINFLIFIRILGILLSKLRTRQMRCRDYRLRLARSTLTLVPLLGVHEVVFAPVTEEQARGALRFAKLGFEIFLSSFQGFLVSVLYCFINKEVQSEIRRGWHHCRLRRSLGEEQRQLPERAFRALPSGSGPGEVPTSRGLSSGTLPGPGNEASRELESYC
Method: as §1
Activation of the human GIP receptor leads to increased intra-cellular concentrations of cyclic AMP (cAMP) and the consequent transcription activation from promoters containing multiple copies of the cAMP response element (CRE). It is thus possible to measure GIP receptor activity using a CRE-luciferase reporter gene introduced into Baby Hamster Kidney (BHK) cells co-expressing the human GIP receptor.
Cells at about 80-90% confluency were washed once with PBS (Gibco 14190-094) and detached from the cell flasks with Versene (Gibco, 15040-066). After centrifugation, the cells were counted, resuspended and diluted to approximately 1.5-3.0×10^6 (1.5E+6 to 3.0E+6) cells/mL in Recovery Cell Culture Freezing Medium (Gibco, 12648-010) and stored at −180° C. in suitable aliquots until use.
as §2
Serial dilutions were transferred to a 384-well assay plate (PerkinElmer/Revvity, 6007688) and mixed with an equal volume (10 μL) of assay buffer without or with 3% HSA (Sigma, A-9511). Frozen stocks of hGIPR BHK Cre-Luc cells were thawed in a 37° C. water bath, washed once in PBS (Gibco 14190-094), diluted to 1.5×10^5 (1.5E+5) cells/mL in assay buffer (without HSA) and added (10 μL) to each well of the 384-well assay plate. After a short centrifugation, the assay plates were incubated for 3 hours at 37° C. in 5% CO2 and let to equilibrated at room temperature for 10 minutes before the addition of 30 μL steadylite Plus™ (PerkinElmer/Revvity, 6066759) per well. Plates were sealed and incubated at room temperature with gentle shaking for 30 minutes while protected from light. Luminescence was detected on a luminescence plate reader e.g. a Synergy 2 (BioTek).

Row | half-life [1] [h] | Substance | further results
1 | 117 | H[Aib]HGTFTSDYSILLEEQAAREFIEWLLAGGPSK([AEEA-AEEA-γGlu-C18 diacid])GEASQLSTAALGRLSAELHQLATLPRTETGSGSP-NH2 [Compound 64] | 
2 | 43 | H[Aib]HGTFTSDYSILLEEQAAREFIEWLLAGGPSSGAGQAPGQAPGASHLSTAQTQRLSAELHRLK([AEEA-AEEA-γGlu-C18 diacid])TLPRTETGSGSP-NH2 [Compound 91] | 
3 | 138 | H[Aib]HGTFTSDYSILLEEQAAREFIEWLLAGGPSK([AEEA-AEEA-γGlu-C20 diacid])GAPPPSGGGEASELSTAALGRLSAELHELATLPRTETGSGSP-NH2 [Compound 16] | 
4 | 69 | H[Aib]HGTFTSDYSILLEEQAAREFIEWLLAGGPSSGAGQAPGQAPLASHLSTAQTQRLSAELHK([AEEA-AEEA-γGlu-C18 diacid])LATLPRTETGSGSP-NH2 [Compound 93] | 
5 | 122 | H[Aib]HGTFTSDYSILLEEQAAREFIEWLLAGGPSK([AEEA-AEEA-γGlu-C18 diacid])GAPPPSGGGEASHLSTAQTARLSAELHQLATLPRTETGSGSP-NH2 [compound 101] | 
6 | 122 | H[Aib]HGTFTSDYSILLEEQAAREFIEWLLAGGPSK([AEEA-AEEA-γGlu-C18 diacid])GAPPPSGGGEASELSTAALGRLSAELHELATLPRTETGSGSP-NH2 [Compound 15] | 

More lines, now with the values behind:

Row | Substance | half-life [1] [h] | further results
7 | Y[Aib]EGTFTSDYSILLEEQAAREFIEWLLAGGPSSGAGQAPGQAPGASHLSTAQTQRLSAK([AEEA-AEEA-γGlu-C18 diacid])LHRLATLPRTETGSGSP-NH2 [compound 55] | 88 | 
8 | Y[Aib]EGTFTSDYSILLEEQAAREFIEWLLAGGPSSGAGQAPGQAPGASHLSTAQTQRLSAELHK([AEEA-AEEA-γGlu-C20 diacid])LATLPRTETGSGSP-NH2 [Compound 115] | 115 | EC50 ([2]; hGLP-1R Potency, 1% HSA, EC50, methods B, in the presence of 1% HSA): 0.0929 nM; EC50 ([2]; method B, absence of HSA, read-out: hGLP-1R Potency, no HSA, EC50): 0.0194 nM; EC50 ([3]; hAMYR3 Potency, 1% HSA, EC50, methods B, in the presence of 1% HSA): 0.551 nM; EC50 ([3]; method B, absence of HSA, read-out: hAMYR3 Potency, no HSA, EC50): 0.00713 nM; EC50 ([4]; hGIPR Potency, 1% HSA, EC50, methods B, in the presence of 1% HSA): 0.0389 nM; EC50 ([4]; method B, absence of HSA, read-out: hGIPR Potency, no HSA, EC50): 0.0103 nM
9 | Y[Aib]EGTFTSDYSILLEEQAAREFIEWLLAGGPSK([AEEA-AEEA-γGlu-C16 diacid])GEASELSTAALGRLSAELHELATLPRTETGSGSP-NH2 [Compound 11] | 119 | 
10 | Y[Aib]EGTFTSDYSILLEEQAAREFIEWLLAGGPSRGEASHLSTAQTQRLSAELHK([AEEA-AEEA-γGlu-C18 diacid])LATLPRTETGSGSP-NH2 [compound 68] | 125 | 
11 | H[Aib]HGTFTSDYSILLEEQAAREFIEWLLAGGPSK([AEEA-AEEA-γGlu-C16 diacid])GAPPPSGGGEASHLSTAQTARLSAELHRLADLPRTETGSGSP-NH2 [Compound 61] | 61 | 
12 | Y[Aib]EGTFTSDYSILLEEQAAREFIEWLLAGGPSSGAGQAPGQAPGASHLSTAQTQRLSAELHRLATLPK([AEEA-AEEA-γGlu-C18 diacid])TETGSGSP-NH2 [Compound 57] | 90 | 
13 | Y[Aib]EGTFTSDYSILLEEQAAREFIEWLLAGGPSSGAGQAPGQAPLASHLSTAQTQRLSAELHK([AEEA-AEEA-γGlu-C18 diacid])LATLPRTETGSGSP-NH2 [compound 58] | 97 | 
14 | Y[Aib]EGTFTSDYSILLEEQAAREFIEWLLAGGPSSGAGQAPGQAPGASHLSTAQTQRLSAELHK([AEEA-AEEA-γGlu-C18 diacid])LATLPRTETGSGSP-NH2 [compound 52] | 120 | 
15 | H[Aib]HGTFTSDYSILLEEQAAREFIEWLLAGGPSK([AEEA-AEEA-γGlu-C16 diacid])GAPPPSGGGEASELSTAALGRLSAELHELATLPRTETGSGSP-NH2 [Compound 12] | 81 | 
